# Results as given in patent publication US5215738A, “Benzamide and nicotinamide radiosensitizers” (SRI International, priority 1990, dated 1993).
# Structures can show the parent of a compound that is named as a salt.
# What was measured:
# EMT6 tumors = assay: In vivo assay for radiosensitization activity (EMT6 tumors in BALB/c mice); parameters: species or system female BALB/c mice; key: 0: No radiosensitization; 1: Minimal radiosensitization (some radiosensitization relative to controls but lowest survival>3×lowest survival with MIS); 2: Moderate radiosensitization (not good as MIS, but lowest surviving fraction<3×lowest surviving fraction with MIS); 3: Good radiosensitization (equal to MIS); 4: Excellent radiosensitization (superior to MIS); conditions: score 0 to 4 compared with MIS, 5 mmol/kg or 2/3 of the LD50, 2,000 rad
# Experimental: In Vivo Assay for Radiosensitization Activity
# The compounds of the invention are tested in vivo for radiosensitization activity by the assay of Brown, J. M. Radiation Res (1975) 64:633-47, incorporated herein by reference. For this assay EMT6 tumors in female BALB/c mice weighing 20-25 g are used. These mice are bred under specific pathogen-free conditions and are 3-4 months old at the beginning of each experiment. The EMT6 tumor is grown intradermally in the flank from an inoculation of 2×10^5 tumor cells taken from the 2nd-8th in vitro passage of the tumor cells since removal from the previous in vivo tumor. Two tumors per mouse are implanted, and are used as subject tumors when they reach a volume of approximately […]. At this point the tumors contain approximately 20% hypoxic cells.
# Test compounds are compared against MIS in this assay. The test compound is tested at a fixed injected dose of either 5 mmol/kg or 2/3 of the LD50 (whichever is lower), MIS is injected into controls at the same dose. Additional suitable controls of test compound-injected but nonirradiated and saline-injected and irradiated mice are also included. A fixed radiation dose of 2,000 rad is applied at variable intervals of 5 min to 2 hr between injection and irradiation. Typically, irradiation is applied at 5, 10, 15, 20, 30, 45, 60, 90, and 120 min following intraperitoneal administration of both drugs. By using these intervals, the results give an indication of both the optimum time to irradiate and of how the test compound sensitizes in relationship to MIS.
# Irradiation of the EMT6 tumors is done by irradiating nonanesthetized tumor-bearing mice in a Plexiglas box. Irradiation conditions are 250 kVp X-rays, 15 mA, FSC 33 cm, added filtration of 0.35 mm Cu, half value layer 1.3 mm Cu, and a dose rate of 317 rad/min.
# Radiosensitization activity is judged by survival rate of dissected and cultured tumor cells as follows: The tumor-bearing mice are killed immediately after irradiation, and tumors dissected from the skin, cut into several pieces, and made into a fine brei by high-speed chopping with a razor blade attached to a jigsaw. The brei is added to 30 ml of Hank's buffered salt solution (HBSS) containing 0.02% DNase, 0.05% promase, and 0.02% collagenase. The suspension is stirred for 30 min at 37° C., filtered, and centrifuged at 1,600 rmp for 10 min at 4° C. The cell pellet is resuspended in complete Waymouth's medium plus 12-1/2% horse serum plus 2-12% fetal calf serum (FCS) and an aliquot mixed with trypan blue and counted with the use of a hemacytometer. […] After incubation for 13 days, the colonies are fixed and stained, and those containing 50 cells or more are counted. […]
# The test compound is scored on the scale of 0 to 4 based on how it compares with MIS. […]
# [1] = Cytotoxicity test (% cell survival, hypoxic cells); format: cell-based, Chinese hamster; conditions: hamster, cho ha-1 cells, 10 mM, 22° C., hypoxia
# Experimental: (§1) Cytotoxicity tests were also carried out on some of the compounds. The test procedure was as follows: Log-phase Chinese hamster ovary HA-1 cells were trypsinized (0.5% trypsin in Hank's buffered salt solution (HBSS)) and plated in 60 mm Permanox petri dishes in concentrations necessary to yield approximately 30 colonies after experimental treatment. The cells were allowed to attach overnight. Then the medium was removed from each dish and replaced with 2 ml of medium containing varying concentrations of the test compound. The petri dishes were then placed in nylon chamber fitted with gassing ports and, to achieve hypoxia, were gassed at room temperature with humidified N2 containing 5% CO2 ' for 1 hr at a rate of 1 l/min. The cells are then exposed to 10 mM of the test compound for 1 hr at 22° C. The % cell survival is read after such treatment.
# [2] = system: Chinese hamster ovary HA-1 cells; assay: Cytotoxicity test (% cell survival, hypoxic cells); format: cell-based; conditions: 10 mM, 1 hr, 22° C., hypoxia, CHO HA-1 cells; 60 min, 10000 µM
# Experimental: as §1
# Water solubility = format: physicochemical
# Chinese hamster cells = conditions: added during or after irradiation; non-hypoxic cells; cited from earlier work
# [3] = system: normal cells (tail growth) and tumor cells; conditions: nicotinamide administered prior to irradiating; cited from earlier work
Structure (SMILES),Radiosensitization (EMT6 tumors),"viability at 1 h, 10000 µM [1]",further results
NC(=O)c1cccc(OCCO)c1 [3-(2-hydroxyethoxy)benzamide],3,89%,–
"COCCNc1cncc(C(N)=O)c1 [3-(2-methoxyethylamino)nicotinamide, 3-(2-methoxyethylamino) nicotinamide]",3,–,–
NC(=O)c1cccc(O)c1 [3-hydroxybenzamide],3,90%,Cytotoxicity % Cell Survival [2]: 77%
"NC(=O)c1cncc(O)c1 [5-hydroxynicotinamide sodium salt, 5-hydroxynicotinamide]",–,–,water solubility (Water solubility): very water soluble
NC(=O)c1cccc(N)c1 [m-aminobenzamide],–,–,sensitization to lethal effects of radiation (Chinese hamster cells): found to sensitize these cells to the lethal effects of radiation
NC(=O)c1cccnc1 [nicotinamide],3,–,"enhancement ratio, normal vs tumor cells [3]: greater for normal cells in vivo than that exhibited for tumor cells"
